Values of other authors in patent US20190298722A1, “USE OF AN INHIBITOR OF THE DE NOVO SYNTHESIS OF PURINES, IN THE TREATMENT OF ADENYLOSUCCINATE LYASE DEFICIENCY” (ASSISTANCE PUBLIQUE-HOPITAUX DE PARIS, priority 2016, published 2019).

What was measured:
ADSL deficiency patients = conditions: child; not confirmed by other studies (Jurecka et al. 2015); cited from earlier work
brains of rats = conditions: infusion into the brains of rats; cited from earlier work
ADSL deficiency patient = conditions: one patient, after 9 months of treatment; cited from earlier work

Row | Compound | motor coordination and seizure control (ADSL deficiency patients) | also measured
1 | O=C[C@H](O)[C@H](O)[C@H](O)CO [D-ribose] | improvement | 
2 | Nc1c(C(=O)N[C@@H](CC(=O)O)C(=O)O)ncn1[C@@H]1O[C@H](CO)[C@@H](O)[C@H]1O [SAICAr, succinylaminoimidazole carboxamide riboside] |  | neuronal damage (brains of rats): significant neuronal damage
3 | C[S+](CC[C@H](N)C(=O)[O-])C[C@H]1O[C@@H](n2cnc3c(N)ncnc32)[C@H](O)[C@@H]1O (stereo partly shown) [SAMe, S-adenosyl-1-methionine] |  | clinical and biological parameters (ADSL deficiency patient): no improvement
4 | O=c1ccn([C@@H]2O[C@H](CO)[C@@H](O)[C@H]2O)c(=O)[nH]1 [uridine] | improvement | 
